Measurements from patent US12600696B2 (XENIOPRO GMBH, priority 2017, dated 2026).

Assays:
Assay type in all cases: cell-based
[1] = tested on: TT cells (human medullary thyroid carcinoma cells); assay: alamarBlue proliferation assay with TT cells; conditions: for activity at 40 µM: Homo sapiens, 120 h, relative to DMSO basis level 1.0, read-out: weighted arithmetic mean (AVEw) of normalized fluorescence intensity, activity range
Method: The antiproliferative activities of compounds falling under formula I, formula II, formula III, formula IV and formula V were investigated on cells or cell lines originating from a disorder of the myeloid cell compartment, the neuroendocrine system, the cervix, and the mucosal epithelium, as well as from the skin epithelium. To this end, HL-60 cells, TT cells, HeLa cells, CAL-27 cells and human primary epidermal keratinocytes (HPEK) were seeded into 96-well plates suitable for fluorescence assays (CORNING #3598) at following initial cell numbers: 1000 cells per well for HL-60; 9000 cells per well for TT; 2000 cells per well for HeLa, 2000 cells per well for CAL-27, 2000 cells per well for HPEK. The cells were treated with compounds at indicated final concentrations (diluted from the 1000× stock-solutions in DMSO to a final DMSO concentration of 0.1% v/v) or with the empty carrier DMSO at 0.1% v/v as control for 5 days. At day 5 after starting the treatments the cells were subjected to the alamarBlue® Proliferation Assay (Bio-Rad Serotec GmbH, BUF012B) according to the protocol of the manufacturer. The readout was taken with a multi-well plate-reader in the fluorescence mode with applying a filter for excitation at 560 nm (band width 10 nm) and for emission at 590 nm (band width 10 nm). Resveratrol (RES) treatment was included as control for growth inhibition.
The assays were performed in duplicate or more replicates of independent single experiments each containing a six-fold replicate for every condition. For every individual plate, the measured fluorescence intensity values of the conditions with compound treatment were normalized against the corresponding equally weighted arithmetic mean of the fluorescence intensity values of the six DMSO treated control wells in order to obtain the relative values to a baseline level of 1.0. The statistical calculations were performed in analogy to the luciferase assay as described above. To this end, two independent outlier analyses were performed according to the methods by Peirce and Chauvenet (Ross, Journal of Engineering Technology 2003, 1-12). Outliers confirmed by at least one of the methods were excluded from the calculations but not more than one value out of six per compound within a single experiment. The weighted arithmetic mean AVEw for each compound was calculated from the normalized values over all independent replicates of the single experiments comprising the six replicates each. The corresponding standard deviation for the weighted arithmetic mean was calculated according to the method described by Bronstein et al. (Bronstein, Semendjajew, Musiol, Mühlig, Taschenbuch der Mathematik, 5th edition 2001 (German), publisher: Verlag Harri Deutsch, Frankfurt am Main and Thun) and was combined with the Gauß′ error propagation associated with the performed calculation for the normalization. The resulting standard deviation is herein referred to as “combined standard deviation”.
TT cells were cultivated according to the protocol of the provider in F-12K medium (Fisherscientific, #11580556, or ATCC, #ATCC-30-2004) containing 10% fetal bovine serum (Fisherscientific, #15517589).
A compound is considered as a growth inhibitor of TT cells, if—at a reference concentration of 40 μM—the weighted arithmetic mean of the normalized fluorescence intensity values after addition of the corresponding combined standard deviation amounts to 0.9 or lower, in particular to 0.8 or lower, 0.7 or lower, 0.6 or lower, 0.4 or lower, and 0.2 or lower, relative to the overall basis level of 1.0. The overall basis level was calculated as the weighted arithmetic mean of all normalized values from the DMSO control measurements in analogy to the calculations performed for the test-compounds. The corresponding combined standard deviation for the DMSO values amounts to less than 1·10^−2.

[2] = tested on: HL-60 cells (human acute myeloid leukemia cells); assay: alamarBlue proliferation assay with HL-60 cells; conditions: 120 h, 5 days, relative to DMSO baseline level of 1.0, read-out: AVEw, weighted arithmetic mean of normalized fluorescence intensity values (Activity Range), HL-60 proliferation
How it was run: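 HL-60 cells (1000/well, RPMI 1640 + 10% FBS) exposed to compound in 0.1% DMSO for 5 days, then alamarBlue fluorescence read (ex 560/em 590 nm). Signals normalized to six DMSO wells per plate (baseline 1.0); outliers removed by Peirce/Chauvenet; weighted mean with combined SD; inhibitor criterion judged at 20 μM reference concentration.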

[3] = tested on: HPEKp cells (human epidermal keratinocyte progenitors, pooled); assay: alamarBlue proliferation assay with HPEKp cells; conditions: 120 h, relative to DMSO basis level 1.0, read-out: weighted arithmetic mean (AVEw) of normalized fluorescence intensity, activity range
How it was run: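 Pooled HPEKp cells in CnT-Prime medium, 2000 cells/well, were exposed to compound at 0.1% DMSO for 5 days. Growth was read by alamarBlue fluorescence (ex 560, em 590 nm) and normalized to the DMSO mean, with outliers excluded, as a weighted mean ± combined SD. Inhibition was judged at 10 μM, with mean+SD ≤0.9 as the criterion.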

[4] = tested on: CAL-27 cells (human tongue squamous cell carcinoma cells); assay: alamarBlue proliferation assay with CAL-27 cells; conditions: for activity at 20 µM / activity at 40 µM: Homo sapiens, 120 h; for activity at 20 µM: relative to DMSO baseline level of 1.0, read-out: AVEw, weighted arithmetic mean of normalized fluorescence intensity values (Activity Range), CAL-27 proliferation; for activity at 40 µM: relative to DMSO basis level 1.0, read-out: weighted arithmetic mean (AVEw) of normalized fluorescence intensity, activity range
How it was run: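 CAL-27 cells seeded at 2000 per well, exposed to compound in 0.1% DMSO for 5 days, then alamarBlue fluorescence (ex 560/em 590 nm). Values normalized to DMSO wells (1.0) as weighted means with combined standard deviation; growth inhibition judged at 20 μM reference concentration.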

[5] = control RES at 20 μM, relative to DMSO basis level 1.0

Row | SMILES | activity at 40 µM [1] | activity at 20 µM [2] | activity at 10 µM [3] | activity at 20 µM ([4]; 5 days) | activity at 40 µM [4] | weighted arithmetic mean (AVEw) of normalized fluorescence intensity [1, 5] | AVEw, weighted arithmetic mean of normalized fluorescence intensity values, CAL-27 proliferation ([4]; 40 μM (control RES 40 μM), 5 days, relative to DMSO baseline level of 1.0) | weighted arithmetic mean (AVEw) of normalized fluorescence intensity [4, 5]
1 | O=C(NO)c1cnc(Oc2ccc(C3CCCCC3)cc2)c(F)c1 [Compound 644, 6-(4-Cyclohexylphenoxy)-5-fluoro-N-hydroxynicotinamide] | 20 to 40% | 0 to 20% | 0 to 20% | 0 to 20% |  |  |  | 
2 | CNC(=O)c1ccc(Oc2ccc(C(F)(F)F)cc2)nc1 [Compound 300, N-methyl-6-(4-(trifluoromethyl)phenoxy)nicotinamide] |  | 80 to 90% |  | 80 to 90% | 80 to 90% |  |  | 
3 | Oc1ccc(C=Cc2cc(O)cc(O)c2)cc1 [RES, resveratrol, reference compound] | 80% | 40% | 40% | 90% | 50% | 0.9 ± 0.0 | 0.4 ± 0.0 | 0.9 ± 0.0
4 | O=C(NO)c1ccc(Oc2ccc(C34CC5CC(CC(C5)C3)C4)cc2)c(F)c1 [Compound 544, 4-(4-(Adamantan-1-yl)phenoxy)-3-fluoro-N-hydroxybenzamide] | 20 to 40% | 0 to 20% |  | 0 to 20% |  |  |  | 
5 | CCC(C)(C)c1ccc(Oc2ccc(C(=O)NO)cc2)cc1 [Compound 171, N-hydroxy-4-(4-(tert-pentyl)phenoxy)benzamide] | 20 to 40% | 0 to 20% |  | 0 to 20% |  |  |  | 
6 | O=C(NO)c1ccc(Oc2ccc(C3CCCCC3)cc2)nc1 [Compound 284, 6-(4-Cyclohexylphenoxy)-N-hydroxynicotinamide] | 0 to 20% | 0 to 20% |  | 0 to 20% |  |  |  | 
7 | O=C(NO)c1ccc(Oc2ccc(C3CC4CCC3CC4)cc2)nc1 (stereo not shown) [Compound 287, 6-(4-((1s,4s)-bicyclo[2.2.2]octan-2-yl)phenoxy)-N-hydroxynicotinamide] | 20 to 40% | 0 to 20% | 0 to 20% | 20 to 40% | 0 to 20% |  |  | 
8 | O=C(NO)c1ccc(Oc2ccc(C34CC5CC(CC(C5)C3)C4)cc2)cc1 [Compound 186, 4-(4-(Adamantan-1-yl)phenoxy)-N-hydroxybenzamide] | 20 to 40% | 0 to 20% |  | 0 to 20% |  |  |  | 
9 | CCCc1ccc(Oc2ccc(C(=O)NO)cc2)cc1 [Compound 166, N-hydroxy-4-(4-propylphenoxy)benzamide] | 20 to 40% | 0 to 20% |  | 20 to 40% | 0 to 20% |  |  | 
10 | NC(=O)c1ccc(Oc2ccc(C3CC4CCC3C4)cc2)cc1 (racemic) [Compound 159, (±)-4-(4-(Bicyclo[2.2.1]heptan-2-yl)phenoxy)benzamide] | 80 to 90% | 40 to 60% | 0 to 20% |  | 60 to 70% |  |  | 
11 | CCC(C)(C)c1ccc(Oc2ccc(C(=O)NO)cn2)cc1 [Compound 273, N-hydroxy-6-(4-(tert-pentyl)phenoxy)nicotinamide] |  | 0 to 20% | 0 to 20% | 0 to 20% |  |  |  | 
12 | O=C(NO)c1ccc(Oc2ccc(C3CCCCC3)cc2)cc1 [Compound 182, 4-(4-cyclohexylphenoxy)-N-hydroxybenzamide] | 20 to 40% | 0 to 20% | 0 to 20% | 20 to 40% |  |  |  | 
13 | O=C(NO)c1ccc(Oc2ccc(C34CC5CC(CC(C5)C3)C4)cc2)nc1 [Compound 288, 6-(4-((3r,5r,7r)-adamantan-1-yl)phenoxy)-N-hydroxynicotinamide] | 0 to 20% | 0 to 20% |  | 20 to 40% |  |  |  | 
14 | CC(C)c1ccc(Oc2ccc(C(=O)NO)cn2)cc1 [Compound 272, N-hydroxy-6-(4-isopropylphenoxy)nicotinamide] | 0 to 20% | 0 to 20% |  | 0 to 20% | 0 to 20% |  |  | 
15 | CN(C)C(=O)c1ccc(Oc2ccc(C3CCCCC3)cc2)nc1 [Compound 334, 6-(4-cyclohexylphenoxy)-N,N-dimethylnicotinamide] | 80 to 90% | 60 to 70% | 60 to 70% |  | 80 to 90% |  |  | 
